Experimental data taken from PubChem BioAssay AID328 (DTP/NCI, 2004).
Where “and” joins values, the source holds several entries; their conditions need not be identical. Equal entries are not always repeated. Inconclusive results and toxic doses are left out.

Tested on: BDF1 mice, P388 leukemia ip, median survival T/C
Assay: NCI In Vivo Anticancer Drug Screen. Data for tumor model P388 Leukemia (intraperitoneal) in B6D2F1 (BDF1) mice
Conditions: endpoint: median survival time, higher = longer survival
In short: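 T/C = treated-group survival ÷ vehicle-control survival; tumour transplanted into mice before dosing.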

[1] = dose: 100.0 mg/kg/injection, schedule: Q04DX003 (ip), vehicle: Klucel (hydroxypropylcellulose) (HPC)
[2] = dose: 200.0 mg/kg/injection, schedule: Q04DX003 (ip), vehicle: Klucel (hydroxypropylcellulose) (HPC)
[3] = dose: 400.0 mg/kg/injection, schedule: Q04DX003 (ip), vehicle: Klucel (hydroxypropylcellulose) (HPC)
[4] = dose: 100.0 mg/kg/injection, schedule: Q04DX003 (ip), vehicle: saline with Tween-80
[5] = dose: 200.0 mg/kg/injection, schedule: Q04DX003 (ip), vehicle: saline with Tween-80
[6] = dose: 400.0 mg/kg/injection, schedule: Q04DX003 (ip), vehicle: saline with Tween-80
[7] = dose: 100.0 mg/kg/injection, schedule: Q01DX009 (ip), vehicle: saline with Tween-80
[8] = dose: 200.0 mg/kg/injection, schedule: Q01DX009 (ip), vehicle: saline with Tween-80
[9] = dose: 50.0 mg/kg/injection, schedule: Q01DX009 (ip), vehicle: saline with Tween-80

For `CCN(CC)C1=C(N(CC)CC)C(N(CC)CC)=C(N(CC)CC)C1=O.[C-]#[O+].[C-]#[O+].[C-]#[O+].[Fe]`, the T/C [1] was 101 % of control, the T/C [2] was 91 % of control and the T/C [3] was 115 % of control.

`Cc1nnc2ccnn2c1C` was tested, and the T/C (dose: 1.56 mg/kg/injection, schedule: Q01DX009 (ip), vehicle: saline) was 108 % of control, the T/C (dose: 3.13 mg/kg/injection, schedule: Q01DX009 (ip), vehicle: saline) was 102 % of control and the T/C (dose: 6.25 mg/kg/injection, schedule: Q01DX009 (ip), vehicle: saline) was 108 % of control. For the same compound, the T/C (dose: 12.5 mg/kg/injection, schedule: Q01DX009 (ip), vehicle: saline) was 100 % of control.

For `O=C1CN(CCl)C(=O)CN1CCl`, the T/C (dose: 12.5 mg/kg/injection, schedule: Q04DX003 (ip), vehicle: water) was 100 % of control and 107 % of control, the T/C (dose: 25.0 mg/kg/injection, schedule: Q01DX009 (ip), vehicle: water) was 94 % of control and the T/C (dose: 25.0 mg/kg/injection, schedule: Q04DX003 (ip), vehicle: water) was 92 % of control and 103 % of control. The T/C (dose: 50.0 mg/kg/injection, schedule: Q01DX009 (ip), vehicle: water) was 92 % of control, the T/C (dose: 50.0 mg/kg/injection, schedule: Q04DX003 (ip), vehicle: water) was 95 % of control and 107 % of control and the T/C (dose: 100.0 mg/kg/injection, schedule: Q01DX009 (ip), vehicle: water) was 100 % of control. For the same compound, the T/C (dose: 100.0 mg/kg/injection, schedule: Q04DX003 (ip), vehicle: water) was 96 % of control and the T/C (dose: 200.0 mg/kg/injection, schedule: Q01DX009 (ip), vehicle: water) was 94 % of control.

For `C(=NCCc1ccccc1)c1ccccc1B1OB(c2ccccc2C=NCCc2ccccc2)OB(c2ccccc2C=NCCc2ccccc2)O1`, the T/C (dose: 100.0 mg/kg/injection, schedule: Q01DX009 (ip), vehicle: Klucel (hydroxypropylcellulose) (HPC)) was 88 % of control, the T/C [1] was 100 % of control and the T/C (dose: 200.0 mg/kg/injection, schedule: Q01DX009 (ip), vehicle: Klucel (hydroxypropylcellulose) (HPC)) was 105 % of control. The T/C (dose: 400.0 mg/kg/injection, schedule: Q01DX009 (ip), vehicle: Klucel (hydroxypropylcellulose) (HPC)) was 88 % of control and the T/C [3] was 91 % of control.

`CC1C(=O)CCC2(C)CCC(C)(C)CC12` (configuration not stated) was tested, and the T/C [4] was 109 % of control, the T/C [5] was 109 % of control and the T/C [6] was 95 % of control.

For `CCCN(CCC)CC(C)O` (configuration not stated), the T/C (dose: 50.0 mg/kg/injection, schedule: Q04DX003 (ip), vehicle: saline) was 109 % of control, the T/C (dose: 100.0 mg/kg/injection, schedule: Q04DX003 (ip), vehicle: saline) was 100 % of control and the T/C (dose: 200.0 mg/kg/injection, schedule: Q04DX003 (ip), vehicle: saline) was 95 % of control.

With `CC(C)(C)OC(=O)NC(CCCNC(=O)OCc1ccccc1)C(=O)NC(CCCNC(=O)OCc1ccccc1)C(=O)OCc1ccccc1` (configuration not stated) the T/C (dose: 50.0 mg/kg/injection, schedule: Q01DX005 (ip), vehicle: saline with Tween-80) was 91 % of control, the T/C (dose: 100.0 mg/kg/injection, schedule: Q01DX005 (ip), vehicle: saline with Tween-80) was 92 % of control and the T/C (dose: 200.0 mg/kg/injection, schedule: Q01DX005 (ip), vehicle: saline with Tween-80) was 95 % of control.

For `O=C1C=C(c2ccccc2)C(O)(c2ccccc2)C1` (configuration not stated), the T/C [7] was 102 % of control and the T/C [8] was 88 % of control.

`c1ccc2c(c1)OCCOCCOc1ccccc1OCCOCCO2` was tested, and the T/C (dose: 4.69 mg/kg/injection, schedule: Q01DX009 (ip), vehicle: saline with Tween-80) was 100 % of control, the T/C (dose: 9.38 mg/kg/injection, schedule: Q01DX009 (ip), vehicle: saline with Tween-80) was 90 % of control and the T/C (dose: 18.7 mg/kg/injection, schedule: Q01DX009 (ip), vehicle: saline with Tween-80) was 90 % of control. The T/C [4] was 100 % of control, the T/C (dose: 150.0 mg/kg/injection, schedule: Q01DX009 (ip), vehicle: saline with Tween-80) was 89 % of control and the T/C [5] was 100 % of control. For the same compound, the T/C [6] was 105 % of control.

With `c1ccc(CCSc2ncnc3nc[nH]c23)cc1` the T/C (dose: 62.5 mg/kg/injection, schedule: Q01DX010 (ip), vehicle: saline) was 95 % of control and 104 % of control, the T/C (dose: 125.0 mg/kg/injection, schedule: Q01DX010 (ip), vehicle: saline) was 95 % of control and 100 % of control and the T/C (dose: 250.0 mg/kg/injection, schedule: Q01DX010 (ip), vehicle: saline) was 100 % of control. The T/C (dose: 500.0 mg/kg/injection, schedule: Q01DX010 (ip), vehicle: saline) was 86 % of control and 109 % of control.

With `C#CC(C)(C)OCC(CCl)OC(N)=O` (configuration not stated) the T/C (dose: 50.0 mg/kg/injection, schedule: Q04DX003 (ip), vehicle: saline with Tween-80) was 105 % of control, the T/C [4] was 110 % of control and the T/C [5] was 100 % of control. For the same compound, the T/C [6] was 115 % of control.

In the case of `COc1ccc(C(=O)c2cccs2)cc1`, the T/C [4] is reported as 100 % of control, the T/C [5] is reported as 100 % of control and the T/C [6] is reported as 86 % of control.

For `Nc1ccc(C(=O)CC(C(=O)O)c2ccccc2)cc1` (configuration not stated), the T/C (dose: 100.0 mg/kg/injection, schedule: Q04DX002 (ip), vehicle: saline with Tween-80) was 88 % of control, the T/C (dose: 200.0 mg/kg/injection, schedule: Q04DX002 (ip), vehicle: saline with Tween-80) was 90 % of control and the T/C (dose: 400.0 mg/kg/injection, schedule: Q04DX002 (ip), vehicle: saline with Tween-80) was 99 % of control.

For `NC(N)=Nc1nc2ccccc2s1`, the T/C (dose: 12.5 mg/kg/injection, schedule: Q04DX003 (ip), vehicle: saline sonified) was 104 % of control, the T/C (dose: 25.0 mg/kg/injection, schedule: Q04DX003 (ip), vehicle: saline sonified) was 100 % of control and the T/C (dose: 50.0 mg/kg/injection, schedule: Q04DX003 (ip), vehicle: saline sonified) was 100 % of control.

`C/C(=N/N=C(N)N)c1ccc(NC(=O)Nc2ccc(/C(C)=N/N=C(N)N)cc2)cc1` was tested, and the T/C (dose: 66.0 mg/kg/injection, schedule: Q04DX003 (ip), vehicle: saline with Tween-80) was 154 % of control, the T/C [7] was 90 % of control and the T/C [4] was 150 % of control. For the same compound, the T/C (dose: 150.0 mg/kg/injection, schedule: Q04DX003 (ip), vehicle: saline with Tween-80) was 159 % of control.

With `CC(=O)/C(=C\c1ccc(Cl)c(Cl)c1)C(=O)c1ccccc1` the T/C (dose: 100.0 mg/kg/injection, schedule: Q04DX003 (ip), vehicle: other) was 113 % of control and the T/C (dose: 200.0 mg/kg/injection, schedule: Q04DX003 (ip), vehicle: other) was 113 % of control.

In the case of `COC(OC)c1cc(=O)[nH]c(=S)n1Cl`, the T/C [1] is reported as 100 % of control, the T/C [2] is reported as 104 % of control and the T/C [3] is reported as 100 % of control.

With `CCN(CC)c1nc(NC2CCCCC2)c2nc(N(CC)CC)nc(NC3CCCCC3)c2n1` the T/C (dose: 3.13 mg/kg/injection, schedule: Q01DX009 (ip), vehicle: Klucel (hydroxypropylcellulose) (HPC)) was 101 % of control, the T/C (dose: 6.25 mg/kg/injection, schedule: Q01DX009 (ip), vehicle: Klucel (hydroxypropylcellulose) (HPC)) was 110 % of control and the T/C (dose: 12.5 mg/kg/injection, schedule: Q01DX009 (ip), vehicle: Klucel (hydroxypropylcellulose) (HPC)) was 99 % of control. For the same compound, the T/C (dose: 25.0 mg/kg/injection, schedule: Q01DX009 (ip), vehicle: Klucel (hydroxypropylcellulose) (HPC)) was 101 % of control.

`N#CC1c2ccccc2C=CN1C(=O)c1ccccc1` (configuration not stated) was tested, and the T/C [9] was 115 % of control, the T/C [7] was 110 % of control and the T/C [1] was 100 % of control. The T/C [4] was 100 % of control, the T/C [8] was 110 % of control and the T/C [2] was 109 % of control. For the same compound, the T/C [5] was 100 % of control, the T/C (dose: 400.0 mg/kg/injection, schedule: Q01DX009 (ip), vehicle: saline with Tween-80) was 110 % of control and the T/C [3] was 109 % of control. For the same compound, the T/C [6] was 100 % of control.

With `Cn1c(CC(O)(C(F)(F)F)C(F)(F)F)cc2ccccc21` the T/C (dose: 100.0 mg/kg/injection, schedule: Q01DX001 (ip), vehicle: other) was 87 % of control and the T/C (dose: 400.0 mg/kg/injection, schedule: Q01DX001 (ip), vehicle: other) was 95 % of control.

`CCOC(=O)c1ccccc1OP(=O)(N(C)C)N(C)C` was tested, and the T/C [9] was 106 % of control and the T/C [8] was 122 % of control.

For `O=C1C=CC(=O)N1c1ccc(Br)cc1Cl`, the T/C (dose: 1.0 mg/kg/injection, schedule: Q04DX003 (ip), vehicle: saline) was 155 % of control and the T/C (dose: 2.0 mg/kg/injection, schedule: Q04DX003 (ip), vehicle: saline) was 122 % of control.

`OCCN(CCO)c1cc(/C=C/c2cccc3ccccc23)nc2ccccc12` was tested, and the T/C (dose: 50.0 mg/kg/injection, schedule: Q01DX009 (ip), vehicle: saline + alcohol) was 100 % of control, the T/C (dose: 100.0 mg/kg/injection, schedule: Q01DX009 (ip), vehicle: saline + alcohol) was 100 % of control and the T/C (dose: 200.0 mg/kg/injection, schedule: Q01DX009 (ip), vehicle: saline + alcohol) was 103 % of control.

For `Cc1ccc(Sc2ccccc2C(C)(C)O)cc1`, the T/C [9] was 101 % of control, the T/C [7] was 101 % of control and the T/C [8] was 95 % of control.

For `O=C1C(C2CCCCC2)CCCC1C1CCCCC1` (configuration not stated), the T/C (dose: 100.0 mg/kg/injection, schedule: Q01DX001 (ip), vehicle: saline with Tween-80) was 107 % of control and the T/C (dose: 200.0 mg/kg/injection, schedule: Q01DX001 (ip), vehicle: saline with Tween-80) was 98 % of control.
